Data reported in patent publication US20050034187A1, “Modified tet-inducible system for regulation of gene expression in plants” (priority 2000, published 2005).
Entries after “also recorded” stand apart in the source; their conditions may differ.

How the values were obtained:
[1] = tested on: wild type tet Receptor and GUS gene controlled by TripleX promoter (pAC489/pAC499 double transformants); experiment: Induction of the tet system in protoplast assays (GUS fluorescent assay); type: cell-based, tobacco; details: for magnitude of derepression (induction of GUS): protoplasts, seventh day of cultivation, FIG. 17
Experimental: Logarithmic scale is used for concentration axis.
Protoplasts were cultivated in the dark at 26° C. […] 100 μl of supernatant was used for the assay.

[2] = tested on: wild type tet Receptor and TripleX-driven GUS gene (pAC489/pAC499 double transformants); experiment: Seed germination test: induction of GUS gene in seedlings; type: in vivo, tobacco; details: for inducing activity (GUS reporter gene): seed germination test, FIG. 18
Mesophyll protoplasts = experiment: Toxicity of chemicals to protoplasts (division rate); details: FIG. 17
Experimental: Mesophyll protoplasts were isolated from T2 transgenic tobacco carrying both wild type tet Receptor and GUS gene controlled by TripleX promoter (pAC489/pAC499 double transformants) and were cultivated at a concentration of 5×10^4 cells/ml in liquid KM medium supplemented with tet analogs at 2-5 mg/l in the dark at 26° C. Total and divided protoplasts were counted and GUS fluorescent assays were performed on the seventh day of cultivation. Toxicity of chemicals was evaluated by division rate—the number of divisions divided by the total number of viable cells and multiplied by 100. Each point on the graphs represents an average of three samples.
Protoplasts were cultivated in the dark at 26° C. First divisions were usually observed after 36-60 hours of cultivation; second and sometimes third divisions were visible beginning from the fifth day. Total and divided protoplasts were counted and GUS fluorescent assays performed on the seventh day. In all experiments protoplasts were counted in a fixed volume of 2 mm^3 using hemocytometer (Hausser Scientific Partnership). Toxicity of chemicals was evaluated by division rate—the number of divisions divided by the total number of viable cells and multiplied by 100. […] 100 μl of supernatant was used for the assay. […]

[3] = tested on: tetracycline-sensitive bacteria; details: concentrations of 0.3 mg/l and lower; according to supplier; cited from earlier work
tobacco seedlings = experiment: Visual evaluation of seedlings for toxicity in seed germination test
From the text: The purpose of this experiment was to determine the concentration curve for selected analogs. Seeds of homozygous tobacco carrying wild type tet Receptor and TripleX-driven GUS gene (pAC489/pAC499 double transformants) were germinated in presence of several analogs at different concentrations. Seedlings were visually evaluated for toxicity, collected and assayed. Each point on the graph represents an average of three samples.
Seeds of T2 homozygous tobacco carrying wild type tet Receptor and TripleX-driven GUS gene were germinated in the presence of several new analogs at different concentrations. Seedlings were visually evaluated for toxicity, collected and assayed.
The next step in evaluating the analogs was to determine their respective concentration curve. Seeds of homozygous tobacco carrying wild type tet Receptor and TripleX-driven GUS gene (pAC489/pAC499 double transformants) were germinated in the presence of several analogs at different concentrations. Seedlings were visually evaluated for toxicity, collected and assayed.

lac repressor = lac repressor (Escherichia coli, UniProt P03023); details: Barkley and Bourgeois, 1980; cited from earlier work
cells = details: cited from earlier work
[4] = tested on: pAC499 (TripleX/GUS) with pACAG084 ((OCS)3MAS/nTR) or pACAG049 (MAR-(OCS)3MAS/nTR); experiment: Time series of GUS induction in whole rooted plants; type: in vivo, tobacco; details: roots, tetracycline 2 mg/l, FIG. 16
Experimental: FIG. 16—Induction of GUS Gene in Double Transformants: Time Series. Time series were run with the best double transformants carrying pAC499 (TripleX/GUS) and either of pACAG084 ((OCS)3MAS/nTR) or pACAG049 (MAR-(OCS)3MAS/nTR). Three weeks-old rooted plants were transferred from agar to magenta boxes with liquid medium and tetracycline 2 mg/l. Tissue samples were regularly taken from roots and assayed for GUS.
Time series were run with the best double transformants carrying pAC499 (TripleX/GUS) and either of pACAG084 ((OCS)3MAS/nTR) or pACAG049 (MAR-(OCS)3MAS/nTR). Three week-old rooted plants were transferred from agar to magenta boxes with liquid medium and tetracycline 2 mg/l. Tissue samples were regularly taken from leaves and roots and assayed for GUS. […] The latter result was consistently observed, as well as, in experiments from the literature.

Chain of lac repressor (P03023 whole entry): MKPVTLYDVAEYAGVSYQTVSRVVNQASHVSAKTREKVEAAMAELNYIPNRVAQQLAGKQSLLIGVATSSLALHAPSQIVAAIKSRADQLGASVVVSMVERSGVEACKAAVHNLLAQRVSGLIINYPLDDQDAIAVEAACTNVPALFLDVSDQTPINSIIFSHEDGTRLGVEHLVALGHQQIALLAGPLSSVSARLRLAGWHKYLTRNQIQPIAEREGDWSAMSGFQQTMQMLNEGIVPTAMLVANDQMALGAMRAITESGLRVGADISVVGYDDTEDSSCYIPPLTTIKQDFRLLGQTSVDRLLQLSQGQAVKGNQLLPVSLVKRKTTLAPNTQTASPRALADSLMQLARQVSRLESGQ

SMILES: Cc1c2c(c(O)c3c(O)cccc13)C(=O)[C@]1(O)C(=O)C(C(N)=O)=C(O)[C@@H](N(C)C)[C@@H]1C2 [1665-56-1, anhydrotetracycline]
- magnitude of derepression (induction of GUS) [1]: not a good derepressing agent; also recorded: able to induce the system
- inducing activity (GUS reporter gene) [2]: negligible induction

SMILES: CN(C)C1C(=O)C(C(N)=O)=C(O)C2(O)C(=O)C3=C(O)c4c(O)cccc4CC3CC12 (centres unmarked) [95702-03-7, 6-deoxy-6-demethyl tetracycline]
- toxicity to plant cells (Mesophyll protoplasts): the same magnitude of derepression and toxicity as tetracycline
- inducer potency compared with tetracycline ([1]; concentrations of 0.3 mg/l and lower): more potent inducer at concentrations of 0.3 mg/l and lower
- magnitude of derepression (induction of GUS) [1]: the same magnitude of derepression and toxicity as tetracycline
- inducing activity (GUS reporter gene) [2]: higher than that of the industry standard, doxycycline
- induction of the GUS reporter gene ([2]; summary of in vitro tests of several tetracycline analogs): very good induction
- toxicity to tetracycline-sensitive bacteria [3]: not toxic to tetracycline-sensitive bacteria
- toxicity compared with other inducers (tobacco seedlings; concentration curve experiment, FIG. 19): lower toxicity than doxycycline and tetracycline

SMILES: CN(C)C1C(=O)C(C(N)=O)=C(O)C2(O)C(=O)C3=C(O)c4c(O)ccc(Br)c4CC3CC12 (centres unmarked) [101057-85-6, 7-bromo-6-deoxy-6-demethyl tetracycline]
- inducing activity (GUS reporter gene) [2]: moderate inducer

SMILES: CC(C)S[C@@H]1O[C@H](CO)[C@H](O)[C@H](O)[C@H]1O [IPTG, isopropyl-B-D-thiogalactopyranoside]
- reduction of the affinity of repressor for the operator (lac repressor): 300 fold
- toxicity of the level required to induce a lac repressor system (cells): cytotoxic to cells

SMILES: CN(C)[C@@H]1C(O)=C(C(N)=O)C(=O)[C@@]2(O)C(O)=C3C(=O)c4c(O)cccc4[C@@](C)(O)[C@H]3C[C@@H]12 [tetracycline]
- magnitude of induction at maximum [4]: 3.5 fold
- toxicity evaluation (growth of plantlets) (tobacco seedlings; concentration of 10 mg/l, FIG. 19 experiment): slightly stunted growth of plantlets
